We go through six compounds from US12440571B2, “Immune agonists” (SHENZHEN UNIVERSITY, priority 2020, dated 2025).

pEC50, pIC50: −log10 of the molar value. Read-outs that look alike come from different tables or passages of the source.

For orientation: pIC50 means −log10 of the IC50, conventionally taken in molar units. The pEC50 is −log10 of the EC50, conventionally taken in molar units.

Holding throughout (format): cell-based
Test [1] has as its system human lymphoma Raji cells. Briefly: CCK8 growth inhibition, Raji. Conditions: CCK8 method, read-out: IC50 of inhibitory activity on tumor cell growth, Raji.
Test [2] concerns human lymphoma Daudi B cells. Briefly: CCK8 growth inhibition, Daudi B. Conditions: CCK8 method, read-out: IC50 of inhibitory activity on tumor cell growth, Daudi B. On the technique in general: Tetrazolium assays rely on reduction of a dye to a coloured formazan, in cell work by metabolically active cells.
The test system of test [3] is murine colon cancer CT-26 cells. The test can be described thus: CCK8 growth inhibition, CT26. Particulars: Mus musculus, CCK8 method, read-out: IC50 of inhibitory activity on tumor cell growth, CT26.
The subject of the next test is black melanoma B16 cells. The test can be described thus: CCK8 growth inhibition, B16. Conditions: Mus musculus, CCK8 method, read-out: IC50 of inhibitory activity on tumor cell growth, B16.
The test system of test [4] is human leukemia K562 cells. The test can be described thus: CCK8 growth inhibition, K562. Particulars: CCK8 method, read-out: IC50 of inhibitory activity on tumor cell growth, K562.
In the next test the target is T1, TLR7 (Homo sapiens, UniProt Q9NYK1).
T1 construct: host or cells: HEK-Blue hTLR7 cells (HEK293-derived SEAP reporter line)
T1 sequence (Q9NYK1 27-1049): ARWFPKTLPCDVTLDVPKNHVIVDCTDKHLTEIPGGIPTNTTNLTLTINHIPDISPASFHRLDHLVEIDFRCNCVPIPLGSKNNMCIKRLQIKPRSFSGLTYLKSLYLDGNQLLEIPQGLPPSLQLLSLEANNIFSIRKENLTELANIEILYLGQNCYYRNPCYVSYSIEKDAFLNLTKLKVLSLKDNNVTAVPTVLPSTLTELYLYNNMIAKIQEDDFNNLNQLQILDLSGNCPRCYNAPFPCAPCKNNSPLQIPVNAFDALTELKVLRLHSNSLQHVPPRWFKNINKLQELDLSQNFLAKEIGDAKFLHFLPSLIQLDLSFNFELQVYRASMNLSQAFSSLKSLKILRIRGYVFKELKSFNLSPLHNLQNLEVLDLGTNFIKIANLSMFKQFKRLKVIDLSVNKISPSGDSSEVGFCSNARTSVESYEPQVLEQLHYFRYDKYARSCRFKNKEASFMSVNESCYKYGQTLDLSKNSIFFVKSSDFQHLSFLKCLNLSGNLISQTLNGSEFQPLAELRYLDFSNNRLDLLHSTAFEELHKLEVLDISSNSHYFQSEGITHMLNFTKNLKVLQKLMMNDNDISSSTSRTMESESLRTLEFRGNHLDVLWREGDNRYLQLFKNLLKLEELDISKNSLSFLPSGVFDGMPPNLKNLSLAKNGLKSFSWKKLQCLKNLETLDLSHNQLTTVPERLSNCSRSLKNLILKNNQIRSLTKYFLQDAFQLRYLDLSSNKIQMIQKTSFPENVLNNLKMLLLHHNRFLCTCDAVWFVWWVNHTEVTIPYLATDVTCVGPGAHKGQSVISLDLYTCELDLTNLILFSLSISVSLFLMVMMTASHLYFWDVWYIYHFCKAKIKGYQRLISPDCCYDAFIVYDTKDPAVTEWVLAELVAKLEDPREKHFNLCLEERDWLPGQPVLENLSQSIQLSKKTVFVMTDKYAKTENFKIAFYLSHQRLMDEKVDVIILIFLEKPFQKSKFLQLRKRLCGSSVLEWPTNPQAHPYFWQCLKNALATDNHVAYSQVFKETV
The test can be described thus: Detection of TLR7 activation (HEK-Blue Detection), SEAP reporter. Conditions: HEK-Blue hTLR7 cells, 6-16 hrs, absorbance 650 nm; read-out: TLR7(EC50/μM). The protocol:
HEK-Blue™hTLR7 cells (purchased from InvivoGen) in a logarithmic growth phase were taken, with a growth medium (Gibco, C11995500BT, Invivo Gen, ant-nr) discarded. The cells were gently rinsed twice by an appropriate amount of 37° C. PBS (Hyclone, SH30256.01), a rinsed PBS was discarded. Thereafter, the cells were added with 2-5 mL of 37° C. PBS, incubated for 1 to 2 minutes, and then scraped by a cell scraper and gently pipetted to be dispersed into a single cell suspension. A hemocytometer was adopted to count the cells and a cell concentration was calculated. After that, a HEK-Blue™ Detection solution (purchased from Invivo Gen) was adopted to adjust the cell concentration of the cell suspension to 2.5×10^4/180 μL per well for cell plating on a 96-well cell culture plate. The HEK-Blue™hTLR7 cells were stimulated according to the designed series of GY compound or drug concentrations (0.01 μM, 0.1 μM, 1 μM, 5 μM, 15 μM, and 30 μM), with 3 replicate wells for each concentration, and were incubated at 37° C., 5% carbon dioxide for 6-16 hrs. After the incubation, the absorbance value was read at 650 nm with a full-wavelength microplate reader (BioTek-Epoch), as listed in Table 2.
Relative induction=(average OD value of experimental group−average OD value of negative control group)/average OD value of negative control group.
Specific details for the above method may be referred to https: • //www.invivogen.com/hek-blue-htlr7; https://www.invivogen.com/sites/default/files/invivogen/products/files/hek_blue_htlr7_tds.pdf.

Test [5] relates to Murine breast cancer 4T1 cells. The test can be described thus: CCK8 growth inhibition, 4T1. Conditions: Mus musculus, CCK8 method, 24 hrs (or 36, 72 hrs), read-out: IC50 of inhibitory activity on tumor cell growth, 4T1. The protocol:
Murine breast cancer 4T1 cells (Kailian Biotech, KG338) in a logarithmic growth phase were selected and washed with PBS, digested with 0.25% trypsin (including EDTA), stopped digestion with a DMEM complete medium, then centrifuged, and resuspended to form a suspension of 4T1 single cells. Cells were counted using a hemocytometer and a cell concentration was calculated. A DMEM complete medium was used to adjust the cell suspension to a target concentration, and thereafter, the cells were plated on a 96-well cell culture plate according to 4×10^3/100 μL per well. After adherering to the wall, the 4T1 cells were stimulated according to the designed concentration gradients of the series of GY compounds or drugs, with each concentration being provided with 3 replicate holes. The 96-well cell culture plate with 4T1 cells seeded and dosing was placed in the cell incubator, and incubated at 37° C., 5% carbon dioxide for 24 hrs (or 36, 72 hrs). After the incubation time was over, 10 μL of CCK8 reagent was added to each well and incubated for 1-2 hrs at 37° C. A full-wavelength microplate reader was adopted to test an OD value at 450 nm wavelength.
CCK8 calculation formula is as follows: • Cell survival rate (100%)=[…]/(Ac−Ab)×100% • As: Absorbance of wells containing cells, CCK8 solution, and drug solution • Ac: Absorbance of wells containing cells and CCK8 solution, and no drug solution • Ab: Absorbance of wells containing CCK8 solution, no cells, and no drug solution
Cell growth inhibition rate (%)=1−((OD value of experimental group−OD value of blank group)/(OD value of control group−OD value of blank group)×100%).

In another test the test system is HEK293T cells. Briefly: CCK8 growth inhibition, HEK-293T. Particulars: Homo sapiens, CCK8 method, read-out: IC50 of inhibitory activity on cell growth, HEK-293T.
Test [6] relates to human leukemia HL-60 cells. Briefly: CCK8 growth inhibition, HL60. Conditions: read-out: IC50 of inhibitory activity on tumor cell growth, HL60.
Test [7] relates to murine leukemia WEHI-3 cells. The test can be described thus: CCK8 growth inhibition, WEHI-3. Conditions: Mus musculus, CCK8 method, read-out: IC50 of inhibitory activity on tumor cell growth, WEHI-3.
In test [8] the test system is murine spleen lymphocytes. The test can be described thus: Cytokine stimulation of murine spleen lymphocytes, ELISA. Conditions: mouse immune cells (spleen lymphocytes), 24 hrs, ELISA; for pEC50: Lymphocyte. As to the method:
The stimulating effect of a series of GY compounds or drugs on murine spleen lymphocytes was detected by ELISA.
6-week-old Balb/c mice were sacrificed by cervical dislocation, spleens were taken under aseptic conditions. A 1 mL sterile syringe and a 200 mesh cell strainer were adopted to quickly grind and disperse the spleen into individual cells in 4 mL of a murine lymphocyte separation solution (Dakko's, 7211011). A resulting cell homogenate was transferred to a 15 mL centrifuge tube, then 1 mL of a RPMI 1640 medium (Hyclone, SH30809.01) was slowly added. Spleen lymphocytes were separated by a density gradient centrifugation method (800×g, 30 min), washed, red blood cells therein were lysed, such that a dispersed spleen lymphocyte suspension was obtained. Cells were counted by a hemocytometer, to calculate the cell concentration. A RPMI 1640 complete medium was adopted to adjust the cell suspension to a concentration of 1×10^6/ml/well, and the cells were then plated on a 24-well cell culture plate (Corning, 3524).
Murine spleen lymphocytes were stimulated according to the gradient concentrations of the series of GY compounds or drugs, and incubated in a 37° C., 5% carbon dioxide incubator for 24 hrs.
• (1) Coating: a Capture antibody (primary antibody, purchased from Invitrogen) was diluted with a 1×Coating Buffer (coating buffer, purchased from Invitrogen) to a recommended concentration, and 100 μL of a resulting diluted solution was added to each well of a 96-well microtiter plate, the plate was sealed with a sealing film at 4° C. overnight. • (2) Washing: a liquid in each well was discarded, then 300 μL of a PBST working solution was added to each well and kept for 1 min, thereafter, the liquid therein was discarded. The washing process was repeated 3 times. • (3) Blocking: 200 μL of a blocking solution was added to each well. The plate was sealed with a sealing film, and placed on a shaker and incubated at room temperature for 1 hr, then washed and patted to be dry. • (4) Sample incubation: a sample was collected and centrifuged to collect a supernatant. Standards, samples, negative controls, and blank controls were provided in the 96-well microtiter plate, and each concentration or sample were provided with 2 replicates. 100 μL of a standard or sample was added to each well, thereafter, the plate was sealed with a sealing film, incubated on a shaker at room temperature for 1 hr or overnight at 4° C., then washed and pated to be dry. • (5) Secondary antibody incubation: the detection antibody (secondary antibody, purchased from Invitrogen) was diluted to a recommended concentration with a dilution buffer, 100 μL of a secondary antibody was added to each well. After being sealed with a sealing film, the plate was incubated on a shaker at room temperature for 1 hr, then washed and patted to be dry. • (6) Avidin-HRP incubation: Avidin-HRP (horseradish peroxidase marker, purchased from Invitrogen) was diluted to the recommended concentration with a dilution buffer, 100 μL of Avidin-HRP was added to each well. After being sealed with a sealing film, the plate was placed on a shaker and incubated at room temperature for 30 mins, washed 5-7 times by the process of step 2), and patted to be dry. • (7) TMB color development: 100 μL of a TMB color development solution (purchased from Invitrogen) was added to each well, for carrying out reaction for 15 mins at room temperature in the dark. • (8) Stopping reaction: 50 μL of 1M H2SO4 solution was added to each well. • (9) Reading an absorbance value by a microplate reader: the OD value at 450 nm wavelength was read. A standard curve and a parameter nonlinear regression equation were drawn, and a sample concentration was calculated according to the obtained formula.

In the next test the test system is A549. The test can be described thus: CCK8 growth inhibition, A549. Conditions: Homo sapiens, CCK8 method, read-out: IC50 of inhibitory activity on tumor cell growth, A549.
Setting [9] is: read-out: TNF-alpha EC50 of cytokine stimulating activity.

In the case of `C=C(CC(=O)NCCOCCOCCOCCn1cc(Cn2c(O)nc3c(N)nc(OCCCC)nc32)nn1)C(=O)N1CCC[C@@H](n2nc(-c3ccc(Oc4ccccc4)cc3)c3c(N)ncnc32)C1` [GY131], the pIC50 in test [1] (Homo sapiens, Raji) was 4.98; in [2] (Homo sapiens, Daudi) it was 4.85; in test [3], 3.78; with black melanoma B16 cells, 4.39; in [4], 4.04; in test [5] it was 5.54. Besides, the pIC50 in the test on HEK293T cells is 4.60; in [6] (Homo sapiens, HL-60, CCK8 method) it was 4.04; in test [7], 5.13. Also, the EC50 on TLR7 was 4.97 µM.
With `C=C(CC(=O)NCCOCCOCCOCCn1cc(Cn2c(O)nc3c(N)nc(OCCCC)nc32)nn1)C(=O)N1CCC(C2CCNc3c(C(N)=O)c(-c4ccc(Oc5ccccc5)cc4)nn32)CC1` (single isomer, unassigned) [GY132], the pIC50 in test [1] is 5.69; in test [2], 5.27; in test [6] (CCK8 method), 5.29; in test [7], 4.83. Besides, the EC50 on TLR7 stood at 5.42 µM. The pEC50 in test [8] (setting [9]) is 5.67. Also, in test [8], the “IFN-gamma EC50 of cytokine stimulating activity” value is “No fit”. Moreover, the “IL-6 EC50 of cytokine stimulating activity” value in test [8] is listed as “No fit”.
As to `CCCCOc1nc(N)c2nc(O)n(Cc3cn(CCOCCOCCOCC(=O)N4CCN(C/C=C/C(=O)N5CCCC(n6nc(-c7ccc(Oc8ccccc8)cc7)c7c(N)ncnc76)C5)CC4)nn3)c2n1` (stereo not shown) [GY138], the pIC50 in test [7] is 4.32.
`C=C(CC(=O)N1CCC(C2CCN=C3C(C(N)=O)=C(c4ccc(Oc5ccccc5)cc4)NN32)CC1)C(=O)NCCOCCOCCOCCn1cc(Cn2c(O)nc3c(N)nc(OCCCC)nc32)nn1` (stereo not shown) [GY150]: in test [7], the pIC50 is 4.65.
`CCCCOc1nc(N)c2nc(O)n(Cc3cn(CCOCCOCCOCC(=O)Nc4cc(Nc5nccc(-c6cn(C)c7ccccc67)n5)c(OC)cc4N(C)CCN(C)C)nn3)c2n1` [GY104]: the results for the pEC50 in [8] (read-out: IL-6 EC50 of cytokine stimulating activity) and in [8] (setting [9]) were 4.56 and 4.46, respectively. Also, the “IFN-gamma EC50 of cytokine stimulating activity” value in test [8] was “No fit”. Besides, in the test with A549, the negative logarithm of the IC50 (pIC50) is 4.77.
`C=C(CC(=O)NCCOCCOCCOCCn1cc(Cn2c(O)nc3c(N)nc(OCCCC)nc32)nn1)C(=O)N1CCC(C2CCNc3c(C(N)=O)c(-c4ccc(Oc5ccccc5)cc4)nn32)CC1` (single isomer, unassigned) [GY137]: the figures for the pIC50 in test [1], in test [2] and in test [6] (CCK8 method) were 4.43, 4.61 and 4.57, respectively. Further, the EC50 on TLR7 stood at 2.92 µM.
